Measured values as given in PubChem BioAssay AID602156 (GNF / Scripps Winzeler lab, 2011).
Calls of active or inactive are those of the source. The rule behind the calls is not given here.

Tested on: P. yoelii liver stage in HepG2-A16-CD81EGFP, imaging
Assay: Plasmodium liver-stage growth inhibition, dose response, imaging, Malaria Box, P. yoelii, HepG2-A16-CD81EGFP (AID 602156);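 note: infected cells exposed to compound for 48 hours before fixation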

| IC50 | Structure (SMILES) |
| --- | --- |
| 499 nM | O=c1c2c(nc3cc(-c4ccc(Br)cc4)[nH]n13)CCCC2 |
| 500 nM | O=c1c2c([nH]c3ccccc13)CCCC2 |
| 6660 nM | COc1ccc2c(C)nc(Nc3nc(C)cc(-c4ccccc4)n3)nc2c1 |
| 497 nM | N#Cc1ccc(NC(=O)NC2CC3CCCC(C2)N3CCc2ccccc2)cc1 (stereo not given) |
| 367 nM | CCN1CCN(c2c(C(=O)c3ccccc3)cnc3cc(OC)c(OC)cc23)CC1 |
| 162 nM | CCN(CC)CCCN(Cc1cc2cc(OC)c(OC)cc2[nH]c1=O)C(=S)Nc1cccc(Cl)c1 |
| 7.49 nM | CC[C@H]1CN2CCc3cc(OC)c(OC)cc3[C@@H]2C[C@@H]1C[C@H]1NCCc2cc(OC)c(OC)cc21 |
| > 10000 nM (inactive) | CCOC(=O)c1c(CNC)n(C)c2cc(Br)c(O)cc12 |
| > 10000 nM (inactive) | N#Cc1c2c(c(N3CCN(Cc4ccccc4)CC3)n3c1nc1ccccc13)CCC2 |
| 124 nM | CCCCNC(=O)C1CCC(CN(Cc2c(Cl)cccc2Cl)S(=O)(=O)c2ccc(Br)cc2)CC1 (stereo not given) |
| 727 nM | O=c1c2c([nH]c3ccccc13)CCCCCC2 |
| 437 nM | COc1cccc(NC(=O)c2ccc(NCCCN3CC(C)CC(C)C3)c([N+](=O)[O-])c2)c1 (stereo not given) |
| > 10000 nM (inactive) | COc1ccc(C2CC(=O)C3=C(C2)NC(C)=C(C(=O)OC(C)C)C3c2ccccc2OC)cc1OC (stereo not given) |
| > 9740 nM (inactive) | COc1ccc2[nH]c(=O)c(CN(C(=S)Nc3ccccc3OC)C3CCCC3)cc2c1 |
| > 10000 nM (inactive) | COc1cccc(-c2cncc(-c3cncc(OC)c3)n2)c1 |
| 10.8 nM | CCOC(=O)c1c[nH]c2c3c(ccc2c1=O)CCCC3 |

More lines, now with the values behind:

| Structure (SMILES) | IC50 |
| --- | --- |
| Nc1ccc(-c2nc3cc(Oc4ccc(Oc5ccc6[nH]c(-c7ccc(N)cc7)nc6c5)cc4)ccc3[nH]2)cc1 | 319 nM |
| CCc1ccccc1NC(C)=O | > 10000 nM (inactive) |
| Cc1ccc2nc3nc4c(C)cccc4c(N)c3cc2c1 | 47.4 nM |
| CCOc1ccc(Nc2nc(NCc3ccccc3)c3ccccc3n2)cc1 | 480 nM |
| COc1cccc(Nc2nc(NCCO)c3ccccc3n2)c1 | 62.3 nM |
| CC1(C)N=C(N)N=C(N)N1c1ccccc1 | 100 nM |
| CCc1ccccc1N=C1c2c(cccc2[N+](=O)[O-])C(=O)C1C(C)=O (stereo not given) | 2030 nM |
| CCCC[n+]1ccccc1C=C1Sc2ccccc2N1CC | 10.9 nM |
| Cc1nc([P+](c2ccccc2)(c2ccccc2)c2ccccc2)c(SCc2ccccc2)o1 | 33.5 nM |
| CCC(C)(C)c1ccc(OCCCC[n+]2cccc(C)c2C)c(C(C)(C)CC)c1 | 45.5 nM |
| c1ccc(CSc2scnc2[P+](c2ccccc2)(c2ccccc2)c2ccccc2)cc1 | 68.5 nM |
| Cc1cccc(C(=O)NCc2n[nH]c(=S)n2-c2cccc(C(F)(F)F)c2)c1 | > 10000 nM (inactive) |
| O=C1C2=C(Nc3ccccc3SC2c2ccco2)c2ccccc21 (stereo not given) | 113 nM |
| CCC(=O)NC(c1ccccc1Cl)c1cc(Cl)c2cccnc2c1O (stereo not given) | 1010 nM |
| CCc1c(C)c(C#N)c2nc3ccccc3n2c1NCc1ccccc1 | > 9600 nM (inactive) |
| CCc1cc2c(cc1-c1csc(N=C(N)N)n1)C(C)(C)CCC2(C)C | 2900 nM |
| O=C(NC(=C(Cl)Cl)[P+](c1ccccc1)(c1ccccc1)c1ccccc1)c1ccc(F)cc1 | 14.5 nM |
| C/C=C/[P+](c1ccccc1)(c1ccccc1)c1ccccc1 | 49.4 nM |
| c1ccc(-c2csc(Nc3nc4cc5c(cc4s3)OCO5)n2)nc1 | 78.9 nM |
| CN(C)c1ccc(C(C=C2C=C(c3ccccc3)C=C(c3ccccc3)O2)=C2C=CC(=[N+](C)C)C=C2)cc1 | 51.9 nM |
| CCOc1ccc(CN(C(=O)COc2ccc(Cl)cc2)C(C)CCCN(CC)CC)cc1 (stereo not given) | 20.4 nM |
| CCOc1ccc(N(C(=O)C2COc3ccccc3O2)C(C(=O)NC2CCCCC2)c2cn(C)nc2C)cc1 (stereo not given) | > 10000 nM (inactive) |
| Nc1nonc1-n1nnc(C(=O)NN=Cc2ccc(F)c(Br)c2)c1-c1ccc([N+](=O)[O-])cc1 | > 10000 nM (inactive) |
| O=C1c2ccccc2C2=Nc3ccccc3SC(c3ccccc3F)C12 (stereo not given) | 239 nM |
| Cc1cccc(N2C(N)=NC(N)=NC2(C)C)c1 | 4.25 nM |
| CC1(C)N=C(N)N=C(N)N1c1ccc(F)cc1 | 18.9 nM |
| O=C(Cn1ccc(=NCc2ccccc2)cc1)c1ccc(I)cc1 | 825 nM |
| Fc1ccc2nc(Nc3nc(-c4ccccn4)cs3)sc2c1 | 43.8 nM |
| Cc1ccc(N2C(N)=NC(N)=NC2(C)C)cc1 | 10 nM |
